This is an account of results in ChEMBL document CHEMBL4190253, “Synthesis of novel 5-(aroylhydrazinocarbonyl)escitalopram as cholinesterase inhibitors” (Eur J Med Chem, 2017).

Assay [1] can be described thus: Selectivity ratio of IC50 for electric eel AChE to IC50 for equine serum BCHE.
Assay [2] addresses Acetylcholinesterase (Electrophorus electricus) (UniProt O42275). Put plainly: Inhibition of electric eel AChE at 0.5 mM using acetylthiocholine iodide as substrate preincubated for 10 mins followed by substrate addition measured after 30 mins by Ellman's method relative to control.
A further assay addresses Cholinesterase (Equus caballus, UniProt P81908). Put plainly: Inhibition of equine serum BCHE using butyrylthiocholine iodide as substrate preincubated for 10 mins followed by substrate addition measured after 30 mins by Ellman's method.
The target in assay [3] is Cholinesterase (Equus caballus) (UniProt P81908). The assay can be described thus: Inhibition of equine serum BCHE at 0.5 mM using butyrylthiocholine iodide as substrate preincubated for 10 mins followed by substrate addition measured after 30 mins by Ellman's method relative to control.
A further assay has as its target Acetylcholinesterase (Electrophorus electricus, UniProt O42275). Put plainly: Inhibition of electric eel AChE using acetylthiocholine iodide as substrate preincubated for 10 mins followed by substrate addition measured after 30 mins by Ellman's method.

Sequence of Acetylcholinesterase (Electrophorus electricus) (O42275 24-633 limits assumed): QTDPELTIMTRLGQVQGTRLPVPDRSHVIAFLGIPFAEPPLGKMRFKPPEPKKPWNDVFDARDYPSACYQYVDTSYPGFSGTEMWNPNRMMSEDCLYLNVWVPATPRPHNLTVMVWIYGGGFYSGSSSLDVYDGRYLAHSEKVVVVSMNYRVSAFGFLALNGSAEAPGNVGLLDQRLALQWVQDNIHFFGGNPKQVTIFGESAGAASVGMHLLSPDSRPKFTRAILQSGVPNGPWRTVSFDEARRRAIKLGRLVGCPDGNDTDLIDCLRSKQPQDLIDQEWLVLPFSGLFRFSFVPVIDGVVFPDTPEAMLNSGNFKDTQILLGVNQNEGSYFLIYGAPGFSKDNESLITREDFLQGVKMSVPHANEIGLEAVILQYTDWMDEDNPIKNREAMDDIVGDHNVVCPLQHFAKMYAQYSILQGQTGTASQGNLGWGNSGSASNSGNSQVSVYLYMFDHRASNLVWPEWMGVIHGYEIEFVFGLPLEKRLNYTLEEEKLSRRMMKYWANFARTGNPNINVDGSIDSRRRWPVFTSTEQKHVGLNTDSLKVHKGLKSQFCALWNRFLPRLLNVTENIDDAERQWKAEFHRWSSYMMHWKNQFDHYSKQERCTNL
Sequence of Cholinesterase (P81908 whole entry): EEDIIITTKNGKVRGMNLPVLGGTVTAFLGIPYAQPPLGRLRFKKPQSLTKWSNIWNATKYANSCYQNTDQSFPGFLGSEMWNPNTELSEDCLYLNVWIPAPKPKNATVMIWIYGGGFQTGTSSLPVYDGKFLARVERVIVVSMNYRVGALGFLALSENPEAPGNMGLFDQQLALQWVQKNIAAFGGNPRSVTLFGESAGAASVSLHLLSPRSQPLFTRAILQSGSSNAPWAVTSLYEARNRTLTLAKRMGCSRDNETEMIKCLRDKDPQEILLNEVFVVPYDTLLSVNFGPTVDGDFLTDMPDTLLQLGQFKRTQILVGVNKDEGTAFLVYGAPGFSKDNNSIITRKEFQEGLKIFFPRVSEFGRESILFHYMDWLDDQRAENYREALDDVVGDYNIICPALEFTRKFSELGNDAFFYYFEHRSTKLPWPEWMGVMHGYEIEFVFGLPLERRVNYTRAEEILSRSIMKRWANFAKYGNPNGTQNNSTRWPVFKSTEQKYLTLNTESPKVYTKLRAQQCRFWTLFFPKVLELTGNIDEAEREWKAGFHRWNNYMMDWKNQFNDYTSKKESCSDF
Sequence of Cholinesterase (Equus caballus) (P81908 whole entry): as above
Sequence of Acetylcholinesterase (O42275 whole entry): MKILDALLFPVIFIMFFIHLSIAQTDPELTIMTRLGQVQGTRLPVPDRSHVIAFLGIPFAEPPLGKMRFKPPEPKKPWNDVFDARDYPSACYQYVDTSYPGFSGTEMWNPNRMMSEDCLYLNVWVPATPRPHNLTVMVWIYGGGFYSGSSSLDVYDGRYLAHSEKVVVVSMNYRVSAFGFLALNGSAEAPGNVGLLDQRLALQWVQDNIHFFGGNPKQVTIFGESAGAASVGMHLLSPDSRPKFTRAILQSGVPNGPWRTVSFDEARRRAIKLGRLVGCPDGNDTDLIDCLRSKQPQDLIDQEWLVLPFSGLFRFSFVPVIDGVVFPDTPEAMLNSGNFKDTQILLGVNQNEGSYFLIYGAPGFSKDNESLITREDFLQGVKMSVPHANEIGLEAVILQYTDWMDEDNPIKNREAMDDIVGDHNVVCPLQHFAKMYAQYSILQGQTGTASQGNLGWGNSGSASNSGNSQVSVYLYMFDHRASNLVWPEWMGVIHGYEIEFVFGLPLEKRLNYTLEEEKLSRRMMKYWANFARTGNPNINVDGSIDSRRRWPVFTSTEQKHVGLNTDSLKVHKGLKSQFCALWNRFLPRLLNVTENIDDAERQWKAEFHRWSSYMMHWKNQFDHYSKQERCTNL

Take `COc1cc(C(=O)NNC(=O)c2ccc3c(c2)COC3(CCCN(C)C)c2ccc(F)cc2)ccc1O` (stereo unspecified): the Ratio IC50 in assay [1] amounted to 1.45. The results for the inhibition in assay [2] and in assay [3] were 81.3% and 84.1%, respectively. Also, the IC50 turned out to be 76.9 µM against Cholinesterase and 112 µM at Acetylcholinesterase.
The matching figures for `COc1ccccc1C(=O)NNC(=O)c1ccc2c(c1)COC2(CCCN(C)C)c1ccc(F)cc1` (stereo unspecified): 0.35, 88.6%, 88.8%, 130 µM and 45.8 µM.
The matching figures for `CN(C)CCCC1(c2ccc(F)cc2)OCc2cc(C(=O)NNC(=O)c3ccc(Br)cc3)ccc21` (stereo unspecified): 0.62, 78.3%, 76.2%, 190 µM and 118 µM.
The matching figures for `CN(C)CCCC1(c2ccc(F)cc2)OCc2cc(C(=O)NNC(=O)c3ccccc3Br)ccc21` (stereo unspecified): 3.7, 85.2%, 84.1%, 2.11 µM and 7.81 µM.
With `CN(C)CCCC1(c2ccc(F)cc2)OCc2cc(C(=O)NNC(=O)c3ccc(O)cc3)ccc21` (stereo unspecified), the Ratio IC50 in assay [1] was found to be 0.61. For the same compound, the inhibition amounted to 84.6% in assay [2] and 73.2% in assay [3]. For the same compound, the IC50 against Cholinesterase was 192 µM; against Acetylcholinesterase it was 117 µM.
The matching figures for `CN(C)CCCC1(c2ccc(F)cc2)OCc2cc(C(=O)NNC(=O)c3ccccc3Cl)ccc21` (stereo unspecified): 1.67, 81.4%, 85.4%, 69.3 µM and 116 µM.
Take `CN(C)CCCC1(c2ccc(F)cc2)OCc2cc(C(=O)NNC(=O)c3ccccc3O)ccc21` (stereo unspecified): the Ratio IC50 in assay [1] was found to be 3.32. In addition, the inhibition worked out at 59% in assay [2] and 85.7% in assay [3]. Moreover, the IC50 against Cholinesterase amounted to 89 µM; against Acetylcholinesterase, 296 µM.
The matching figures for `CN(C)CCCC1(c2ccc(F)cc2)OCc2cc(C(=O)NNC(=O)c3ccccc3F)ccc21` (stereo unspecified): 1.55, 84.4%, 85.5%, 71.4 µM and 111 µM.
The matching figures for `CN(C)CCCC1(c2ccc(F)cc2)OCc2cc(C(=O)NNC(=O)c3ccccc3)ccc21` (stereo unspecified): 3.53, 69.8%, 81.5%, 75.8 µM and 268 µM.
The matching figures for `CN(C)CCCC1(c2ccc(F)cc2)OCc2cc(C(=O)NNC(=O)c3cccc(Cl)c3)ccc21` (stereo unspecified): 0.46, 93.5%, 84%, 3.9 µM and 1.8 µM.
`CN(C)CCCC1(c2ccc(F)cc2)OCc2cc(C(=O)NNC(=O)c3ccc([N+](=O)[O-])cc3)ccc21` (stereo unspecified): the Ratio IC50 in assay [1] is 0.74. The inhibition in assay [2] was 75.8%; in assay [3], 74.6%. Moreover, the half-maximal inhibitory concentration (IC50) is 169 µM against Cholinesterase and 125 µM against Acetylcholinesterase.
In the case of `CN(C)CCCC1(c2ccc(F)cc2)OCc2cc(C(=O)NNC(=O)c3cccc(O)c3)ccc21` (stereo unspecified), the Ratio IC50 in assay [1] stood at 1.52. Also, the inhibition in assay [2] came to 64.4%; in assay [3] it was 88.2%. Besides, the IC50 against Cholinesterase worked out at 129 µM; at Acetylcholinesterase, 197 µM.
Regarding `COc1ccc(C(=O)NNC(=O)c2ccc3c(c2)COC3(CCCN(C)C)c2ccc(F)cc2)cc1` (stereo unspecified), in assay [1], the Ratio IC50 was found to be 0.63. Moreover, the inhibition in assay [2] is 76.4%; in assay [3] it was 72.2%. The IC50 was 196 µM on Cholinesterase and 124 µM against Acetylcholinesterase.
In assay [3], `CNC(=O)Oc1ccc2c(c1)[C@]1(C)CCN(C)[C@@H]1N2C` yielded an inhibition of 82.8%.
`Cc1cccc(C(=O)NNC(=O)c2ccc3c(c2)COC3(CCCN(C)C)c2ccc(F)cc2)c1` (stereo unspecified): the Ratio IC50 in assay [1] was 1.32. Further, the inhibition in assay [2] stood at 82.6%; in assay [3], 85.7%. Also, the IC50 against Cholinesterase was found to be 88.7 µM; at Acetylcholinesterase, 117 µM.
The matching figures for `CN(C)CCCC1(c2ccc(F)cc2)OCc2cc(C(=O)NNC(=O)c3cccc(F)c3)ccc21` (stereo unspecified): 0.76, 77.1%, 73.3%, 185 µM and 141 µM.
The matching figures for `Cc1ccccc1C(=O)NNC(=O)c1ccc2c(c1)COC2(CCCN(C)C)c1ccc(F)cc1` (stereo unspecified): 0.49, 83.4%, 72.4%, 233 µM and 115 µM.
Regarding `CN(C)CCCC1(c2ccc(F)cc2)OCc2cc(C(=O)NNC(=O)c3ccc(I)cc3)ccc21` (stereo unspecified), the Ratio IC50 in assay [1] came out at 35.7. For the same compound, the inhibition in assay [2] amounted to 76.4%; in assay [3], 85.5%. Further, the figures for the IC50 against Cholinesterase and against Acetylcholinesterase were 5.88 µM and 210 µM, respectively.
The matching figures for `CN(C)CCCC1(c2ccc(F)cc2)OCc2cc(C(=O)NNC(=O)c3ccccc3I)ccc21` (stereo unspecified): 1.87, 81.8%, 82.6%, 77.9 µM and 146 µM.
The matching figures for `CN(C)CCCC1(c2ccc(F)cc2)OCc2cc(C(=O)NNC(=O)c3cccc(Br)c3)ccc21` (stereo unspecified): 0.88, 80.1%, 88.8%, 130 µM and 115 µM.
The matching figures for `Cc1ccc(C(=O)NNC(=O)c2ccc3c(c2)COC3(CCCN(C)C)c2ccc(F)cc2)cc1` (stereo unspecified): 1.69, 69.7%, 76.6%, 158 µM and 268 µM.
`CN(C)CCCC1(c2ccc(F)cc2)OCc2cc(C(=O)NNC(=O)c3cccc([N+](=O)[O-])c3)ccc21` (stereo unspecified): the Ratio IC50 in assay [1] was found to be 0.74. For the same compound, the inhibition in assay [2] is 79.3%; in assay [3], 73.3%. In addition, the IC50 worked out at 185 µM against Cholinesterase and 137 µM on Acetylcholinesterase.
Regarding `CN(C)CCCC1(c2ccc(F)cc2)OCc2cc(C(=O)NNC(=O)c3ccc(N)cc3)ccc21` (stereo unspecified), in assay [1], the Ratio IC50 came to 21.6. Moreover, the inhibition in assay [2] is 83.2%; in assay [3], 85.5%. In addition, the IC50 at Cholinesterase was determined as 5.98 µM; on Acetylcholinesterase it was 129 µM.
In the case of `CN(C)CCCC1(c2ccc(F)cc2)OCc2cc(C(=O)NNC(=O)c3ccc(Cl)cc3)ccc21` (stereo unspecified), the Ratio IC50 in assay [1] came to 0.04. For the same compound, the inhibition in assay [2] is 86.1%; in assay [3] it was 78.4%. The IC50 against Cholinesterase stood at 138 µM; against Acetylcholinesterase, 6.71 µM.
The matching figures for `CN(C)CCCC1(c2ccc(F)cc2)OCc2cc(C(=O)NNC(=O)c3cccc(I)c3)ccc21` (stereo unspecified): 1.81, 83.7%, 85.4%, 70.2 µM and 127 µM.
On to `CN(C)CCCC1(c2ccc(F)cc2)OCc2cc(C(=O)NNC(=O)c3ccccc3N)ccc21` (stereo unspecified), for which the Ratio IC50 in assay [1] worked out at 1.72. For the same compound, the inhibition in assay [2] came to 84.5%; in assay [3], 84.4%. The 50% inhibitory concentration (IC50) on Cholinesterase turned out to be 68.2 µM; against Acetylcholinesterase, 118 µM.
The matching figures for `CN(C)CCCC1(c2ccc(F)cc2)OCc2cc(C(=O)NNC(=O)c3ccccc3[N+](=O)[O-])ccc21` (stereo unspecified): 3.35, 70.3%, 84.1%, 76.3 µM and 256 µM.
Regarding `CN(C)CCCC1(c2ccc(F)cc2)OCc2cc(C(=O)NNC(=O)c3ccc(F)cc3)ccc21` (stereo unspecified), the Ratio IC50 in assay [1] stood at 0.63. Besides, the inhibition in assay [2] is 86.6%; in assay [3], 74.6%. The IC50 on Cholinesterase is 179 µM; at Acetylcholinesterase it was 112 µM.
